Source: ChEMBL document CHEMBL1142283, “Thiosulfinates from Allium tuberosum L. induce apoptosis via caspase-dependent and -independent pathways in PC-3 human prostate cancer cells” (Bioorg Med Chem Lett, 2008)
Calls of active or inactive are those of the source. The rule behind the calls is not given here.

Tests used:
[1] = system: PC-3; test: Induction of AIF protein translocation into nucleus in human PC3 cells after 24 hrs by immunostaining; format: functional, cell-based
[2] = system: PC-3; test: Growth inhibition of human PC3 cells by SRB assay; format: functional, cell-based; conditions: TDE = time-dependent effect
[3] = system: PC-3; test: Reversal of induction of apoptosis in human PC3 cells in presence of caspase inhibitor Z-VAD-fmk; format: functional, cell-based
[4] = system: PC-3; test: Induction of apoptosis in human PC3 cells assessed as DNA fragmentation at 5 ug/mL after 24 hrs by ELISA relative to control; format: functional
[5] = system: PC-3; test: Induction of apoptosis in human PC3 cells assessed as DNA fragmentation at 20 ug/mL after 24 hrs by ELISA relative to control; format: functional
[6] = system: PC-3; test: Induction of apoptosis in human PC3 cells assessed as caspase 3 activity at 10 ug/mL relative to control; format: functional
[7] = system: PC-3; test: Induction of cell death in human PC3 cells by trypan blue assay; format: functional, cell-based
[8] = system: PC-3; test: Induction of PARP cleavage in human PC3 cells after 24 hrs by Western blot; format: functional, cell-based
[9] = Cytotoxicity against human RC58T/h/SA#4 cells after 24 hrs by SRB assay; format: functional, cell-based
[10] = system: PC-3; test: Induction of apoptosis in human PC3 cells assessed as caspase 9 activity at 10 ug/mL relative to control; format: functional
[11] = system: PC-3; test: Induction of apoptosis in human PC3 cells assessed as DNA fragmentation at 10 ug/mL after 24 hrs by ELISA relative to control; format: functional
[12] = system: PC-3; test: Cell cycle arrest in human PC3 cells assessed as accumulation at subG1 phase after 24 hrs by flow cytometry; format: functional, cell-based
[13] = system: PC-3; test: Induction of apoptosis in human PC3 cells assessed as caspase 3 activity at 20 ug/mL; format: functional, cell-based
[14] = system: PC-3; test: Induction of apoptosis in human PC3 cells assessed as caspase 3 activity at 5 ug/mL; format: functional, cell-based
[15] = system: PC-3; test: Increase in Bax protein expression in human PC3 cells by Western blot; format: functional, cell-based
[16] = system: PC-3; test: Cytotoxicity against human PC3 cells after 24 hrs by SRB assay; format: functional, cell-based; conditions: PC-3, 24 h
[17] = system: PC-3; test: Induction of apoptosis in human PC3 cells after 24 hrs by Hoechst staining; format: functional, cell-based
[18] = system: PC-3; test: Growth inhibition of human PC3 cells assessed as decrease in cell numbers by trypan blue assay; format: functional, cell-based
[19] = system: PC-3; test: Induction of apoptosis in human PC3 cells assessed as caspase 8 activity at 10 ug/mL relative to control; format: functional
[20] = system: DU-145; test: Cytotoxicity against human DU145 cells after 24 hrs by SRB assay; format: functional, cell-based; conditions: DU-145, 24 h
[21] = system: PC-3; test: Decrease in Bcl2 protein expression in human PC3 cells by Western blot; format: functional, cell-based
[22] = system: PC-3; test: Induction of cell death in human PC3 cells in presence of caspase inhibitor Z-VAD-fmk; format: functional, cell-based
[23] = system: PC-3; test: Increase in AIF protein levels in human PC3 cells after 24 hrs by Western blot; format: functional, cell-based
[24] = system: PC-3; test: Induction of apoptosis in human PC3 cells assessed as caspase 3 activity at 10 ug/mL; format: functional, cell-based
[25] = system: LNCaP; test: Cytotoxicity against human LNCap cells after 24 hrs by SRB assay; format: functional, cell-based
[26] = system: PC-3; test: Induction of Bid protein cleavage in human PC3 cells by Western blot; format: functional, cell-based

Row | Structure (SMILES) | Activity [1] | Activity [2] | Activity [3] | Fold change [4] | Fold change [5] | Fold change [6] | Activity [7] | Activity [8] | IC50 [9] | Fold change [10] | Fold change [11] | Activity [12] | Activity [13] | Activity [14] | Activity [15] | IC50 [16] | Activity [17] | Activity [18] | Fold change [19] | IC50 [20] | also measured
1 | C=CC[S+]([O-])SC (configuration not stated) | Active | tde | Active | 1.3 | 1.8 | 1.7 | Dose-dependent effect | Active | 25.3 µM | 2.1 | 1.7 | Dose-dependent effect | Active | Active | Dose-dependent effect | 62.9 µM | Active | Dose-dependent effect | 1.9 | 85.8 µM | Activity [21]: Dose-dependent effect; Activity [22]: Active; Activity [23]: Active; Activity [24]: Active; IC50 [25]: 29.7 µM; Activity [26]: Active
2 | CS[S+](C)[O-] (configuration not stated) | Active | tde | Active | 1.3 | 1.8 | 1.7 | Dose-dependent effect | Active | 96.1 µM | 2.1 | 1.7 | Dose-dependent effect | Active | Active | Dose-dependent effect | 166 µM | Active | Dose-dependent effect | 1.9 | 184 µM | Activity [21]: Dose-dependent effect; Activity [22]: Active; Activity [23]: Active; Activity [24]: Active; IC50 [25]: 102 µM; Activity [26]: Active
